{
  "source": "patent US20230049917A1",
  "about": "“Pharmaceutical Composition of CASR Modulators and Methods and Uses Thereof” (Lupin Limited, priority 2019, published 2023)",
  "key": {"[1]": {"test": "First-in-human Phase 1 single- and multiple-dose study", "type": "in vivo", "conditions": "healthy subjects"}, "[2]": {"test": "Pharmacokinetic analysis after oral administration of the formulation to rats", "type": "in vivo", "conditions": "male, Sprague Dawley, rat, in vivo, po, 5 mg/kg", "procedure": "Male Sprague Dawley Rats (weight 225±25 gm; aged 8 to 10 weeks) were administered orally with the formulation. Each of the tested compounds was dosed at 5 mg/kg at a dose volume of 1 mL/kg. Blood samples were collected at time points 0.25, 0.5, 1, 2, 4, 6, 8 and 24 hours and analyzed the plasma concentrations of administered compound and calculated PK parameters. The plasma concentrations of the tested compounds were measured by liquid chromatography with tandem mass spectrometry (LCMS-MS) using […] extraction method. The plasma concentration-time data was subjected to Non-Compartmental Analysis using Phoenix WinNonlin® (Version 5.3) software to assess the pharmacokinetic parameters. Peak plasma concentrations (Cmax) and time for the peak plasma concentrations (Tmax) were the observed values. The area under the concentration time curve (AUC) was calculated by linear trapezoidal rule."}, "[3]": {"test": "Phase 2 study: safety assessments (adverse events)", "type": "in vivo, human", "conditions": "for patients who discontinued the study due to adverse drug reactions: Main Study", "procedure": "For safety assessments, safety was assessed through the summary of adverse events (AE), physical examinations and electrocardiogram (ECG) measurements, vital signs (e.g., blood pressure, pulse rate, respiratory rate and body temperature), body weight and laboratory data (e.g., haemtaology, biochemistry and urinalysis). All AEs (both serious and non-serious) were derived from spontaneous, unsolicited reports of patients, by observation and by routine open questions. The AE reporting extended from date of informed consent until completion of the final visit. Any ongoing AE at EOS visit was followed until the outcome was evident and resolved, clinically stabilized or a plausible explanation was found. Pre-existing diseases including deranged laboratory values (before participating in the study) were not considered AEs, unless the disease worsened during the study period. Signs and symptoms clearly associated with the disease under study (including symptoms of disease progression) were reported as AEs if they were newly emergent, or were determined as severe or worsening, or if deterioration of disease-related signs and symptoms to be caused directly by the study drug. Physical examination, vital signs (measured in a sitting position after resting for at least 3 minutes), ECG (recorded by qualified personnel after the patient had been resting in the supine position for at least 3 minutes) and clinical laboratory examinations were done as part of safety assessments. Abnormal laboratory values/ECGs/vital signs/physical examination were reported as AEs only if the abnormality was clinically relevant or significant or believed that the abnormality must be reported as an AE. Any dose (and associated symptoms) given to the patient that exceeded the dose prescribed to the patient, at a minimum, was recorded as a non-serious AE in the patient file and CRF/electronic CRF. Any case of overdose leading to an AE or SAE had to be reported to medical monitor according to reporting requirements. In case of an accidental overdose, the patient had to be monitored by for any adverse clinical events, as deemed necessary."}, "cytochrome P450 2D6": {"target": "cytochrome P450 2D6 (Homo sapiens, UniProt P10635)", "sequence (P10635 whole entry, species assumed)": "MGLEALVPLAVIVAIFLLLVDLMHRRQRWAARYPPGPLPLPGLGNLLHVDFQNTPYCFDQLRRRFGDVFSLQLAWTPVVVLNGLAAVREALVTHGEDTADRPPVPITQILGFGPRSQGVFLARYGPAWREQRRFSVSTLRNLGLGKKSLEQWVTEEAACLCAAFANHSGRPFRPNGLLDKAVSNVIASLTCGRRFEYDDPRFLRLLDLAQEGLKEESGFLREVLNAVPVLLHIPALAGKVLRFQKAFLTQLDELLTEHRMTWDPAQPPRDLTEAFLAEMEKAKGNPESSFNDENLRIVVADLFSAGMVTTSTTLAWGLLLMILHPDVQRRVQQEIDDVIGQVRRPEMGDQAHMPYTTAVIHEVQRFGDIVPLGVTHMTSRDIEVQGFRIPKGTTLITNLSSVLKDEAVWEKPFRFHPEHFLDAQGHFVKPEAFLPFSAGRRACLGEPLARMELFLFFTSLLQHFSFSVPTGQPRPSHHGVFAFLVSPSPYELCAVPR", "test": "Cytochrome P450 2D6 liability", "type": "in vitro ADME"}, "[4]": {"test": "Phase 2 Main Study: phosphate change from baseline", "type": "in vivo, human", "procedure": "For PK-PD assessments, blood samples for PK assessments were collected at scheduled time points (Screening Period; Day 1 (Pre-dose and post-dose); Day 2; Day 8 EOT (Pre-dose and post-dose); Day 9; Day 10; and Day 15+/−3 days (Follow-up visit)) in the PK-PD study. The PD profiling was done in parallel to the PK profiling in the PK-PD study. Blood samples (approximately 1×4 mL) for PK assessments were collected by venipuncture or cannulation at the selected time points into tubes containing dipotassium ethylenediaminetetraacetic acid (K2EDTA) anti-coagulant. The collected blood sample were kept on ice until centrifugation and later centrifuged at 4 °C at 5000 rpm for 10 minutes and the separated plasma collected in 2 tubes/aliquots. The plasma samples were stored at −20 °C or lower at the clinical centre until they were shipped for analysis. Blood samples (approximately 1×8 mL) for PD assessments were collected in PK-PD study and Main Study at selected time points The Main Study's selected time points were Screening Period; Day 1; Day 8+/−3 days; Day 15+/−3 days; Day 30+/−3 days; Day 60+/−3 days; and Day 90+/−3 days (EOT/Early Discontinuations). Blood samples (approximately 1×5 mL) for exploratory PD assessments for PK-PD study and Main Study were collected at selected time points.\nChange from baseline to all measured and relevant time points was calculated. The baseline value for this study was the higher of the 2 values obtained during screening period for serum iPTH concentration, corrected total serum calcium and phosphorous. The baseline value for all other parameters was the last valid and planned visit value prior to first dose of IP in the study. For continuous data, summary statistics included the number, arithmetic mean, standard deviation (SD), median, minimum and maximum. For categorical data, frequency and percentage were presented."}, "[5]": {"target": "human Ether-a-go-go-related gene (hERG) (Homo sapiens, UniProt Q12809)", "sequence (Q12809 whole entry)": "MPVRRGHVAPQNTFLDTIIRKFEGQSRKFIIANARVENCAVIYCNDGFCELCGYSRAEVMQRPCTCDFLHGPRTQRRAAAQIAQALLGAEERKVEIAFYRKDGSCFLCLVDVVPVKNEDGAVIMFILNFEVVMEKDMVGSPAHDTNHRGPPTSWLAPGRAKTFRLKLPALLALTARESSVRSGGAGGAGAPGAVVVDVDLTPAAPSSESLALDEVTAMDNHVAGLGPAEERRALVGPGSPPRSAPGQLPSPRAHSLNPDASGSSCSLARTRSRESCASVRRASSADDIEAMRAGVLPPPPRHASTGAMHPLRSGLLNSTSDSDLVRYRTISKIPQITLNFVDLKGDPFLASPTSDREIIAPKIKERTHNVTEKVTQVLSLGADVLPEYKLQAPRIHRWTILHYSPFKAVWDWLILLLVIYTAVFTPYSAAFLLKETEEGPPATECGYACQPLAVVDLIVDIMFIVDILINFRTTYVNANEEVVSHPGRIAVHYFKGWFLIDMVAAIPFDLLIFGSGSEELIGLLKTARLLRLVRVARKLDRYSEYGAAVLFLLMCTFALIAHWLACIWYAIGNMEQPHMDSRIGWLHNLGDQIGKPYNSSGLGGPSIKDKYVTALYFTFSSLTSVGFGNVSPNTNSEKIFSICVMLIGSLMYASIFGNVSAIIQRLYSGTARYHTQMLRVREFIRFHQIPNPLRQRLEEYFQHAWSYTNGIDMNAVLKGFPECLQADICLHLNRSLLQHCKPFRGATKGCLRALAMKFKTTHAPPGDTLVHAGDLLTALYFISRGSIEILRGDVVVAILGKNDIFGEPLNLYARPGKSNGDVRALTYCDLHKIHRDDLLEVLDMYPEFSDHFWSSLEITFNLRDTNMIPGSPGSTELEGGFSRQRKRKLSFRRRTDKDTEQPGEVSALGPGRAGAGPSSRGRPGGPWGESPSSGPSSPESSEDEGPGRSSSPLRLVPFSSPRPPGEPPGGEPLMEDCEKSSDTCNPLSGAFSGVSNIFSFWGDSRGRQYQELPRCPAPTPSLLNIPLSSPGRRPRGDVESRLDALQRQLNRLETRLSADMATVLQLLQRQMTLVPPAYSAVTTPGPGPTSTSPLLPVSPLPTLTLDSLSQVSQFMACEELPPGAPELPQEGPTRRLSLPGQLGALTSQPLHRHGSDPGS", "test": "hERG liability"}, "[6]": {"test": "Non-clinical studies: hypocalcaemia at efficacious doses", "type": "in vivo"}, "[7]": {"conditions": "patients not on dialysis, 5 mg BID (N = 16)"}, "[8]": {"conditions": "patients not on dialysis, 10 mg QD (N = 37)"}, "[9]": {"conditions": "patients not on dialysis, Total in Compound 3 Group (N = 71)"}, "[10]": {"conditions": "patients on dialysis, 10 mg QD (N = 34)"}, "[11]": {"conditions": "patients on dialysis, 20 mg BID (N = 19)"}, "[12]": {"conditions": "patients on dialysis, 25 mg QD (N = 35)"}, "[13]": {"conditions": "patients on dialysis, Total in Compound 3 Group (N = 88)"}},
  "data": [
    {"smiles": "Cc1ccc([C@@H]2C[C@H](CN[C@H](C)c3cccc4ccccc34)Oc3ccccc32)cc1C(=O)O.Cl", "note": "[Compound 3, 2-methyl-5-((2R,4S)-2-((((R)-1-(naphthalen-1-yl)ethyl)amino)methyl)chroman-4-yl)benzoic acid hydrochloride]", "values": [
      {"measurement": "safety and tolerability", "setting": "[1]", "result": "safe and well tolerated"},
      {"measurement": "AUC(0-t)", "setting": "[2]", "result": "15 ± 4", "unit": "µM·h"},
      {"measurement": "Cmax", "setting": "[2]", "result": "3.4 ± 1", "unit": "µM"},
      {"measurement": "Tmax", "setting": "[2]", "result": "0.5 to 2", "unit": "h"},
      {"measurement": "patients with hypocalcaemia considered by the investigator to be related to the study drug", "setting": "[3]; 1 patient each in 10 mg QD, 25 mg QD and 20 mg BID arms", "result": 3, "unit": "patients"},
      {"measurement": "symptomatic hypocalcemic effect", "setting": "[3]; CKD patients, dose range 5 mg to 50 mg", "result": "no symptomatic hypocalcemic effect"},
      {"measurement": "patients who discontinued the study due to adverse drug reactions", "setting": "[3]; not on dialysis group", "result": "None"},
      {"measurement": "patients who discontinued the study due to adverse drug reactions", "setting": "[3]; on dialysis group", "result": "None"},
      {"measurement": "adverse events of hyperphosphatemia", "setting": "[3]; Phase 2 study, all patients", "result": "no adverse events of hyperphosphatemia"},
      {"measurement": "patients experiencing adverse events of hypocalcaemia or hyperphosphatemia", "setting": "[3]; patients not on dialysis", "result": "none"},
      {"measurement": "Adverse event incidence: Diarrhea", "setting": "[3]; [7]", "result": 0, "unit": "%"},
      {"measurement": "Adverse event incidence: Nausea", "setting": "[3]; [7]", "result": 0, "unit": "%"},
      {"measurement": "Adverse event incidence: Vomiting", "setting": "[3]; [7]", "result": 0, "unit": "%"},
      {"measurement": "Adverse event incidence: Diarrhea", "setting": "[3]; [8]", "result": 2.7, "unit": "%"},
      {"measurement": "Adverse event incidence: Nausea", "setting": "[3]; [8]", "result": 0, "unit": "%"},
      {"measurement": "Adverse event incidence: Vomiting", "setting": "[3]; [8]", "result": 0, "unit": "%"},
      {"measurement": "Adverse event incidence: Diarrhea", "setting": "[3]; [9]", "result": 2.7, "unit": "%"},
      {"measurement": "Adverse event incidence: Nausea", "setting": "[3]; [9]", "result": 0, "unit": "%"},
      {"measurement": "Adverse event incidence: Vomiting", "setting": "[3]; [9]", "result": 0, "unit": "%"},
      {"measurement": "Adverse event incidence: Diarrhea", "setting": "[3]; [10]", "result": 0, "unit": "%"},
      {"measurement": "Adverse event incidence: Nausea", "setting": "[3]; [10]", "result": 0, "unit": "%"},
      {"measurement": "Adverse event incidence: Vomiting", "setting": "[3]; [10]", "result": 0, "unit": "%"},
      {"measurement": "Adverse event incidence: Diarrhea", "setting": "[3]; [11]", "result": 0, "unit": "%"},
      {"measurement": "Adverse event incidence: Nausea", "setting": "[3]; [11]", "result": 5.3, "unit": "%"},
      {"measurement": "Adverse event incidence: Vomiting", "setting": "[3]; [11]", "result": 0, "unit": "%"},
      {"measurement": "Adverse event incidence: Diarrhea", "setting": "[3]; [12]", "result": 0, "unit": "%"},
      {"measurement": "Adverse event incidence: Nausea", "setting": "[3]; [12]", "result": 0, "unit": "%"},
      {"measurement": "Adverse event incidence: Vomiting", "setting": "[3]; [12]", "result": 0, "unit": "%"},
      {"measurement": "Adverse event incidence: Diarrhea", "setting": "[3]; [13]", "result": 0, "unit": "%"},
      {"measurement": "Adverse event incidence: Nausea", "setting": "[3]; [13]", "result": 5.3, "unit": "%"},
      {"measurement": "Adverse event incidence: Vomiting", "setting": "[3]; [13]", "result": 0, "unit": "%"},
      {"measurement": "cytochrome P450 2D6 liabilities", "setting": "cytochrome P450 2D6", "result": "devoid"},
      {"measurement": "phosphorous levels due to administration over a period of 90 days", "setting": "[4]; CKD patients not on dialysis", "result": "no increase"},
      {"measurement": "phosphorous levels due to administration over a period of 90 days", "setting": "[4]; CKD patients on dialysis", "result": "no increase"},
      {"measurement": "difference in mean percentage change in phosphate from baseline at the end of 90 days versus Placebo", "setting": "[4]; patients not on dialysis, 10 mg and 5 mg arms", "result": "not significant"},
      {"measurement": "difference in mean percentage change in phosphate from baseline at the end of 90 days versus Placebo", "setting": "[4]; patients on dialysis, 10 mg, 20 mg and 25 mg arms", "result": "not significant"},
      {"measurement": "hERG liabilities", "setting": "[5]", "result": "devoid"},
      {"measurement": "hypocalcaemia", "setting": "[6]", "result": "No hypocalcaemia"}
    ]}
  ]
}
